Laboratory results from patent US20190233825A1, “METHODS OF MODULATING CYTOSOLIC DNA SURVEILLANCE MOLECULES” (BAYER ANIMAL HEALTH GMBH, priority 2015, published 2019).

Columns and labels:
I-ISG54 promoter = assay: SEAP reporter assay in B16-Blue ISG cells; type: cell-based, murine
Text: B16-Blue™ ISG cells were derived from the murine B16 F1 melanoma cell line. They express the secreted embryonic alkaline phosphatase (SEAP) reporter gene under the control of the I-ISG54 promoter which is comprised of the IFN-inducible ISG54 promoter enhanced by a multimeric ISRE. Stimulation of B16-Blue™ ISG cells with IFNs, cyclic dinucleotides, such as cGAMP, or type I IFN inducers, such as transfected poly(dA:dT), triggers the activation of the I-ISG54 promoter and the production of SEAP.

BRD [1] = assay: BRD treatment study in beef calves: Draxxin, Seq No 2-F, combination; type: in vivo, cattle; settings: 56 days after diagnosis
Description: The purpose of this study was to compare the effectiveness of Draxxin®, Draxxin® and Seq No 2-F, or Seq No 2-F alone in cattle diagnosed with BRD.
The first group was administered 1.1 ml/cwt of Draxxin® subcutaneously at the time of diagnosis. […] A 3 day moratorium followed treatment, and the study concluded 56 days after the diagnosis.

BRD [2] = assay: BRD treatment study in heifers: Baytril 100, Seq No 2-F, combination; type: in vivo, cattle; settings: observed until day 60 post-diagnosis
STING = assay: SEAP reporter assay in B16-Blue ISG-KO-STING cells; type: cell-based, murine
Description: B16-Blue™ ISG-KO-STING cells were generated from the B16-Blue™ ISG cell line, a murine B16-F1 melanoma-derived cell line, through stable knockout of the STING gene. They express the secreted embryonic alkaline phosphatase (SEAP) reporter gene under the control of the I-ISG54 promoter which is comprised of the IFN-inducible ISG54 promoter enhanced by a multimeric ISRE. […] Stimulation of these cells with IFN triggers the activation of the I-ISG54 promoter and the production of SEAP.
Referring to FIG. 26, known STING pathways activators, Herpes simplex virus DNA complexed with LyoVec (HSV-LyoVec) and the cyclic dinucleotide 2′,3′-cGAMP were used to validate cell line properties.

BRD [3] = assay: Metaphylaxis study in feedlot calves at medium risk of BRD versus Micotil; settings: calves observed for 56 days
Description: Weaned beef calves with an average weight of 590 lbs and determined to be at medium risk for BRD were selected for this study.
Morbidity, mortality, average daily gain (ADG), dry matter intake (DMI), and feed to weight gain ratio were measured and compared between the study groups.

[4] = system: interferon regulatory factor 3 (IRF-3); assay: IRF-inducible SEAP reporter assay in THP1-Blue ISG (IRF-THP-1) cells
Description: A human macrophage-like (monocyte) cell line (THP-1), derived from an acute monocytic leukemia patient, is used as a model system for monocyte function. THP1-Blue ISG cells (Invitrogen) were generated by stable integration of an interferon regulatory factor (IRF)-inducible secretory alkaline phosphatase (SEAP) reporter construct (IRF-THP1 cells). The THP-1 cells endogenously contain functional STING (Simulator of interferon genes) pathway molecules, as well as cytosolic DNA recognition receptors. STING receives signals from and is itself a cytosolic DNA surveillance molecule that acts through IRF-3. Activation of STING leads to SEAP production, which is then detectable in the culture supernatant. Thus, activation of the IRF-3 reporter SEAP construct correlates to activation of the STING pathway.
The stably transfected IRF-THP-1 cell line was tested for its functionality by IFN-α1, which is a global activator of different IRF pathways. IRF-THP-1 cells were contacted with human interferon α1 (IFN α1) as a positive control for IRF-3 activation. […] FIG. 4 graphically illustrates IFN α1 activation of IRF-3.

Molecule: Nc1nc2c(ncn2[C@@H]2O[C@@H]3COP(=O)(O)O[C@H]4[C@@H](O)[C@H](n5cnc6c(N)ncnc65)O[C@@H]4COP(=O)(O)O[C@H]3[C@H]2O)c(=O)[nH]1 [3′,3′-cGAMP]
- SEAP signal (I-ISG54 promoter; controls, FIG. 21): expected specific signals

Molecule: CCCNC[C@]1(O)[C@H](C)O[C@@H](O[C@H]2[C@H](C)[C@@H](O[C@@H]3O[C@H](C)C[C@H](N(C)C)[C@H]3O)[C@](C)(O)C[C@@H](C)CN[C@H](C)[C@@H](O)[C@](C)(O)[C@@H](CC)OC(=O)[C@@H]2C)C[C@@]1(C)OC [Draxxin, tulathromycin]
- ADG (deads in) (BRD [1]): 3.2 lbs/day
- ADG (deads out) (BRD [1]): 3.3 lbs/day
- Avg wt gain (deads in) (BRD [1]): 181.1 lbs
- Avg wt gain (deads out) (BRD [1]): 187.0 lbs
- BRD Chronicity (BRD [1]): 4.0%
- BRD case-fatality (BRD [1]): 1.3%
- BRD morbidity (BRD [1]): 29.2%
- BRD repulls (BRD [1]): 37.2%
- Time to BRD Dx (BRD [1]): 18.8 days

Molecule: CCN1CCN(c2cc3c(cc2F)c(=O)c(C(=O)O)cn3C2CC2)CC1 [Baytril 100, enrofloxacin]
- ADG (deads out) (BRD [2]): 1.8 lbs/day
- Avg wt gain (deads in) (BRD [2]): 24.3 lbs
- Avg wt gain (deads out) (BRD [2]): 87.00 lbs
- BRD Chronicity (BRD [2]): 22.10%
- BRD case-fatality (BRD [2]): 10.0%
- BRD repulls (BRD [2]): 44.8%

Molecule: Nc1nc2c(ncn2[C@@H]2O[C@@H]3COP(=O)(O)O[C@H]4[C@@H](O)[C@H](n5cnc6c(N)ncnc65)O[C@@H]4COP(=O)(O)O[C@@H]2[C@@H]3O)c(=O)[nH]1 [2′,3′-cGAMP]
- signal (interferon-response element readout) (STING): completely abrogated
- signal (interferon-response element readout) (I-ISG54 promoter; parental B16-Blue ISG cell line, FIG. 26): significant signals

Molecule: CC[C@H]1OC(=O)C[C@@H](O)[C@H](C)[C@@H](O[C@@H]2O[C@H](C)[C@@H](O)[C@H](N(C)C)[C@H]2O)[C@@H](CCN2C[C@H](C)C[C@H](C)C2)C[C@@H](C)C(=O)/C=C/C(C)=C/[C@@H]1CO[C@@H]1O[C@H](C)[C@@H](O)[C@@H](OC)[C@H]1OC [Micotil]
- ADG (BRD [3]): 2.96
- BRD Chronicity (BRD [3]): 27.90%
- BRD case-fatality (BRD [3]): 3.95%
- BRD repulls (BRD [3]): 17.9%
- DMI (BRD [3]): 12.96
- Feed: Gain (BRD [3]): 4.50
- Overall BRD Mortality (BRD [3]): 0.44%
- Time to BRD Dx (BRD [3]): 28.1

B1: IFN-α1: human interferon α1, positive control, global activator of different IRF pathways (protein, UniProt P01562 24-189, looked up)
Interferon alpha-1/13: CDLPETHSLDNRRTLMLLAQMSRISPSSCLMDRHDFGFPQEEFDGNQFQKAPAISVLHELIQQIFNLFTTKDSSAAWDEDLLDKFCTELYQQLNDLEACVMQEERVGETPLMNADSILAVKKYFRRITLYLTEKKYSPCAWEVVRAEIMRSLSLSTNLQERLRRKE
- SEAP signal, dose-response curve ([4]; 1.5625-50 μg/ml, FIG. 11): dose-dependent response
- SEAP signal ([4]; IFN-α1 dosing, FIG. 4): clear dose-response relationship
- SEAP signal (I-ISG54 promoter; IFN-α1 dosing, FIG. 20): clear dose-response relationship
